What was measured:
NOD mouse [1] = assay: Rate of type 1 diabetes and final blood glucose in treated female NOD/ShiLtJ mice; format: in vivo; conditions: for rate of diabetes: EGCG IP in saline from age 3-5 days
Protocol: Mouse care: NOD/ShiLtJ mice were from The Jackson Laboratory (Bar Harbor, ME, USA). Mice were housed under standard conditions (20-24° C., humidity 30-70%, lighting regimen 12 h light/12 h dark) in the University of Wisconsin Biomedical Research Model Service that is a specific pathogen free level 1 facility. […] Mice had access to acidified water or water containing a chemical and/or green tea ad libitum. All procedures were approved by the Research Animal Resources and Compliance veterinary care authority of the University of Wisconsin, Madison.
Mouse treatments: Mice were given chemicals by intraperitoneal injection and/or by gavage and/or in drinking water. Water-soluble chemicals were administered in a solution of sodium chloride adjusted to have a final osmolality of 0.5-0.9%. Lipid soluble chemicals were dissolved in olive oil, peanut oil, corn oil, Mazola® oil or canola oil.
Starting at age 2 to 5 days mice were given injections on every third or fourth day for 2 to 4 weeks (usually 2 to 2.5 weeks) for the first 4 or 6 injections, and thereafter twice per week on Mondays and Thursdays until up to age 100 days. In some instances, pregnant and nursing mice were given chemicals in drinking water starting at about the middle or late pregnancy continuing during nursing and also continuing for various lengths of time to the offspring with or without additional intraperitoneal injections of chemicals. In other instances, chemicals were delivered by intraperitoneal injection into pregnant mice and continued after delivery into the mouse pups. Chemicals, for example EGCG, were also delivered in drinking water starting before birth to the pregnant mouse mother and/or continuing and/or starting ad libitum to the mice after birth usually until at least 100 days of age or throughout life.
Chemicals given in distilled drinking water were green tea (as a source of EGCG and other catechins) (Lipton® 100% Natural Green Tea). […] The tea water was given alone and also in combination with acetaminophen 2 g/l in the same water.
In most cases nondiabetic mice were euthanized at 40-41 weeks of age. Statistical significances of the frequencies of diabetes in the mice receiving test treatments were compared to the rates of diabetes in mice receiving control treatments and were calculated with the Chi square test and with the Chi square test with Yate's correction.
In most of the studies, control solutions and the other treatments were administered to the mice until they were 100 days old. Mice without diabetes were euthanized at 40-41 weeks of age. Diabetic mice were euthanized when their blood glucose levels reached a level that met the criteria for diabetes.
Administration of water-soluble chemicals serving as controls to NOD mice: Control solutions were the vehicles in which chemicals were dissolved. Control solutions were usually administered to mouse litters from the same shipments as the litters receiving test chemicals and/or litters from the same parents as the litters receiving test chemicals and were administered during the same month and year as treatments to the litters receiving test treatments. Statistical probabilities between the rates of diabetes in the litters receiving test treatments were compared to litters simultaneously receiving control treatments.

mice = conditions: mouse, in vivo
Source text: Intraperitoneal injections of water-soluble chemicals were given in normal saline (0.9% sodium chloride).

NOD mouse [2] = conditions: Fu et al.: 1 mM EGCG in drinking water, given after age 5 weeks; 12 mice; 32 weeks of age; cited from earlier work
[3] = 100 μmol/kg IP in saline, age 34 weeks
[4] = 20 μmol/kg IP in saline until age 58-61 days, age 34 weeks
[5] = 50 μmol/kg IP in saline from age 3-5 days until 59-63 or 93-95 days, age 41-44 weeks
[6] = 1 mM in drinking water, oral, from 1-4 days after birth
[7] = 60 day treatment (stopped at age 59-60 days), 50 μmol/kg IP in saline, age 40 weeks
[8] = IP 50 μmol/kg in saline til wean (21 days), then gavage 100 μmol/kg until 97-98 days
[9] = started post wean (21 days) until 99 days, 50 μmol/kg IP in ¾ saline
[10] = hydroxytyrosol alone, 325 μmol/kg first 5 weeks, 650 thereafter, IP in ¾ saline
[11] = menaquinone-4 200 μmol/kg IP in olive oil, age 40 weeks
[12] = menaquinone-4 200 μmol/kg IP in peanut oil
[13] = pure oleocanthal (oil) 50 μmol/kg, no carrier, IP til wean, then gavage
[14] = 2000-3500 μmol/kg IP in olive oil, age 40 weeks
[15] = 2000-3500 μmol/kg IP in peanut oil
[16] = started post wean, 3100-4000 μmol/kg IP in olive oil

O=C(O)/C=C/c1ccc(O)c(O)c1 [Caffeic Acid, reference compound]
Diabetes (%) (NOD mouse [1]; [3]): 65%
Final Blood Glucose (mean ± SE) diabetic (NOD mouse [1]; [3]): 611 ± 32 mg glucose/dl
Final Blood Glucose (mean ± SE) non-diabetic (NOD mouse [1]; [3]): 178 ± 15 mg glucose/dl

COC1=C(OC)C(=O)C(C)=CC1=O [CoQ0, 2,3-dimethoxy-5-methyl-1,4-benzoquinone, reference compound]
Diabetes (%) (NOD mouse [1]; [4]): 83%
Final Blood Glucose (mean ± SE) diabetic (NOD mouse [1]; [4]): 649 ± 53 mg glucose/dl
Final Blood Glucose (mean ± SE) non-diabetic (NOD mouse [1]; [4]): 183 ± 28 mg glucose/dl
toxicity (mice): toxicity to the mice

O=C(O[C@@H]1Cc2c(O)cc(O)cc2O[C@@H]1c1cc(O)c(O)c(O)c1)c1cc(O)c(O)c(O)c1 [EGCG, (2R,3R)-5,7-Dihydroxy-2-(3,4,5-trihydroxyphenyl)-3,4-dihydro-2H-1-benzopyran-3-yl 3,4,5-trihydroxybenzoate]
Diabetes (%) (NOD mouse [1]; [5]): 35%
Final Blood Glucose (mean ± SE) diabetic (NOD mouse [1]; [5]): 685 ± 34 mg glucose/dl
Final Blood Glucose (mean ± SE) non-diabetic (NOD mouse [1]; [5]): 159 ± 5 mg glucose/dl
Diabetes (%) (NOD mouse [1]; [6]): 40%
Final Blood Glucose (mean ± SE) diabetic (NOD mouse [1]; [6]): 708 ± 24 mg glucose/dl
Final Blood Glucose (mean ± SE) non-diabetic (NOD mouse [1]; [6]): 172 ± 4 mg glucose/dl
Diabetes (%) (NOD mouse [1]; [7]): 33%
Final Blood Glucose (mean ± SE) diabetic (NOD mouse [1]; [7]): 663 ± 57 mg glucose/dl
Final Blood Glucose (mean ± SE) non-diabetic (NOD mouse [1]; [7]): 145 ± 4 mg glucose/dl
rate of diabetes (NOD mouse [1]; treatment ending after 59-63 days, age 41-44 weeks): 38%
rate of diabetes (NOD mouse [1]; treatment ending after 93-95 days, age 41-44 weeks): 31%
Diabetes (%) (NOD mouse [1]; [8]): 50%
Final Blood Glucose (mean ± SE) diabetic (NOD mouse [1]; [8]): 624 ± 33 mg glucose/dl
Final Blood Glucose (mean ± SE) non-diabetic (NOD mouse [1]; [8]): 200 ± 12 mg glucose/dl
Diabetes (%) (NOD mouse [1]; [9]): 29%
Final Blood Glucose (mean ± SE) diabetic (NOD mouse [1]; [9]): 605 ± 59 mg glucose/dl
Final Blood Glucose (mean ± SE) non-diabetic (NOD mouse [1]; [9]): 166 ± 4 mg glucose/dl
Diabetes (%) (NOD mouse [1]; started post wean, 250 μmol/kg by gavage in water, mice 24-27 weeks old, study ongoing): 25%
mice that had diabetes (NOD mouse [2]): 25%

OCCc1ccc(O)c(O)c1 [Hydroxytyrosol, 4-(2-hydroxyethyl)benzene-1,2-diol]
Diabetes (%) (NOD mouse [1]; [10]): 59%
Final Blood Glucose (mean ± SE) diabetic (NOD mouse [1]; [10]): 672 ± 24 mg glucose/dl
Final Blood Glucose (mean ± SE) non-diabetic (NOD mouse [1]; [10]): 173 ± 12 mg glucose/dl

CC(C)=CCC/C(C)=C/CC/C(C)=C/CC/C(C)=C\CC1=C(C)C(=O)c2ccccc2C1=O [Menaquinone-4, 3-methyl-2-[(2Z,6E,10E)-3,7,11,15-tetramethylhexadeca-2,6,10,14-tetraenyl]naphthalene-1,4-dione, reference compound]
Diabetes (%) (NOD mouse [1]; 200 μmol/kg in olive oil, IP til wean (21 days), then gavage until 98 days, mice 24-30 weeks old, study ongoing): 25%
Diabetes (%) (NOD mouse [1]; 30 day treatment, 200 μmol/kg IP in olive oil, mice 20-40 weeks old, study ongoing): 32%
Diabetes (%) (NOD mouse [1]; 60 day treatment, 200 μmol/kg IP in olive oil, mice 34-36 weeks old, study ongoing): 4%
Diabetes (%) (NOD mouse [1]; [11]): 0%
Final Blood Glucose (mean ± SE) non-diabetic (NOD mouse [1]; [11]): 172 ± 15 mg glucose/dl
Diabetes (%) (NOD mouse [1]; [12]): 50%
Final Blood Glucose (mean ± SE) diabetic (NOD mouse [1]; [12]): 706 ± 25 mg glucose/dl
Final Blood Glucose (mean ± SE) non-diabetic (NOD mouse [1]; [12]): 164 ± 9 mg glucose/dl

C/C=C(/C=O)[C@@H](CC=O)CC(=O)OCCc1ccc(O)cc1 [Oleocanthal (oil)]
Diabetes (%) (NOD mouse [1]; [13]): 35%
Final Blood Glucose (mean ± SE) diabetic (NOD mouse [1]; [13]): 560 ± 61 mg glucose/dl
Final Blood Glucose (mean ± SE) non-diabetic (NOD mouse [1]; [13]): 178 ± 7 mg glucose/dl

CC1=C(C/C=C(\C)CCC[C@H](C)CCC[C@H](C)CCCC(C)C)C(=O)c2ccccc2C1=O [Phylloquinone, reference compound]
Diabetes (%) (NOD mouse [1]; 110 μmol/kg IP in olive oil): 38%
Final Blood Glucose (mean ± SE) diabetic (NOD mouse [1]; 110 μmol/kg IP in olive oil): 648 ± 37 mg glucose/dl
Final Blood Glucose (mean ± SE) non-diabetic (NOD mouse [1]; 110 μmol/kg IP in olive oil): 174 ± 5 mg glucose/dl
Diabetes (%) (NOD mouse [1]; [14]): 21%
Final Blood Glucose (mean ± SE) diabetic (NOD mouse [1]; [14]): 647 ± 27 mg glucose/dl
Final Blood Glucose (mean ± SE) non-diabetic (NOD mouse [1]; [14]): 163 ± 5 mg glucose/dl
Diabetes (%) (NOD mouse [1]; [15]): 40%
Final Blood Glucose (mean ± SE) diabetic (NOD mouse [1]; [15]): 646 ± 40 mg glucose/dl
Final Blood Glucose (mean ± SE) non-diabetic (NOD mouse [1]; [15]): 167 ± 10 mg glucose/dl
Diabetes (%) (NOD mouse [1]; [16]): 36%
Final Blood Glucose (mean ± SE) diabetic (NOD mouse [1]; [16]): 677 ± 20 mg glucose/dl
Final Blood Glucose (mean ± SE) non-diabetic (NOD mouse [1]; [16]): 156 ± 6 mg glucose/dl

— US20260053902A1, “COMPOSITIONS AND METHODS FOR REDUCING THE RATE OF TYPE 1 DIABETES” (Wisconsin Alumni Research Foundation, priority 2023, published 2026)
